molecular target: SOS1 (Homo sapiens (Human), UniProt Q07889); test: Ras-SOS interaction assay (HTRF), K-Ras G13D utilized; type: binding; conditions: K-Ras G13D, read-out: SOS1 IC50
From the text: For example, the equilibrium interaction of human SOS1 (hSOS1) with human wildtype Kras or K-Ras mutant (e.g., hK-Ras G12C mutant, or hK-Ras G12C) can be assessed as a proxy or an indication for a subject compound's ability to inhibit SOS. Detection of such interaction is achieved by measuring homogenous time-resolved fluorescence resonance energy transfer (HTRF) from (i) a fluorescence resonance energy transfer (FRET) donor (e.g., antiGST-Europium) that is bound to GST-tagged K-Ras G12C to (ii) a FRET acceptor (e.g., anti-6His-XL665) bound to a His-tagged hSOS1.
A Ras working solution is prepared in assay buffer containing typically 10 nM of the protein construct (e.g., GST-tagged hK-Ras G12C) and 2 nM of the FRET donor (e.g., antiGST-Eu(K) from Cisbio, France). A SOS1 working solution is prepared in assay buffer containing typically 10 nM of the protein construct (e.g., His-hSOS1) and 10 nM of the FRET acceptor (e.g., anti-6His-XL665 from Cisbio, France). An inhibitor control solution is prepared in assay buffer containing 10 nM of the FRET acceptor without the SOS1 protein.
A fixed reaction mixture with or without test compound is transferred into a 384-well plate. Ras working solution is added to all wells of the test plate. SOS1 working solution is added to all wells except for those that are subsequently filled with the inhibitor control solution. […] The ratiometric data (i.e., emission 2 divided by emission 1) is used to calculate IC50 values against SOS1 using GraphPad Prism (GraphPad software).

Sequence of SOS1 (Q07889 564-1049): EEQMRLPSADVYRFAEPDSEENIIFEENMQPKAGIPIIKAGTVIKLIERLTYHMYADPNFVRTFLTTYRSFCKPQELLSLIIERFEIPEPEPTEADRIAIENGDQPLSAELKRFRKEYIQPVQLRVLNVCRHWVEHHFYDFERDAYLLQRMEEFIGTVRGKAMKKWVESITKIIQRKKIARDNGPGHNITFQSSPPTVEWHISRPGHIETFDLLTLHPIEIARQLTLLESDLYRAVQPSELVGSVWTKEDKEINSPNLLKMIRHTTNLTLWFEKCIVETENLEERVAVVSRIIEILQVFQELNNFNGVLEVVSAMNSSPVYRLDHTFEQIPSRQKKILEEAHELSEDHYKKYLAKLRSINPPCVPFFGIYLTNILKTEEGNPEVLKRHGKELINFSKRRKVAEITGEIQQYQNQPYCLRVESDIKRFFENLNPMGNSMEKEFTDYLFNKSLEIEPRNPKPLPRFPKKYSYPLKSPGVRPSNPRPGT

`Cc1nc2c3cc(C4(C#N)CC4)c(=O)n(c3n1)CCC/C=C\COCC(F)(F)c1cccc(c1F)[C@@H](C)N2` [Compound 1, 1-((3R,Z)-4^2,5,5-trifluoro-1^2,3-dimethyl-1^7-oxo-1^7,1^8-dihydro-7-oxa-2-aza-1(4,8)-pyrido[2,3-d]pyrimidina-4(1,3)-benzenacyclotridecaphan-9-en-16-yl)cyclopropane-1-carbonitrile] and `C[C@H]1Nc2nc(=O)n(c3c2cc(C2(C#N)CC2)c(=O)n3C)CCC/C=C\COCC(F)(F)c2cccc1c2F` [Compound 2, 1-((1^3E,3R,9Z)-4^2,5,5-trifluoro-1^8,3-dimethyl-1^2,1^7-dioxo-1^1,1^2,1^7,1^8-tetrahydro-7-oxa-2-aza-1(4,1)-pyrido[2,3-d]pyrimidina-4(1,3)-benzenacyclotridecaphan-9-en-1^6-yl)cyclopropane-1-carbonitrile] fall in the same range of IC50: 100 to 5000 nM for the first, 100 to 5000 nM for the second.

`C[C@H]1Nc2nc(=O)n(c3c2cc(C2(C#N)CC2)c(=O)n3C)CCCCCOCC(F)(F)c2cccc1c2F` [Compound 5, 1-((3R,E)-4^2,5,5-trifluoro-1^8,3-dimethyl-1^2,1^7-dioxo-1^1,1^2,1^7,1^8-tetrahydro-7-oxa-2-aza-1(4,1)-pyrido[2,3-d]pyrimidina-4(1,3)-benzenacyclododecaphane-1^6-yl)cyclopropane-1-carbonitrile] and `C[C@H]1Nc2nc(=O)n(c3c2cc(C2(C#N)CC2)c(=O)n3C)CCCCOCC(F)(F)c2cccc1c2F` [Compound 37, 1-((3R,E)-4^2,5,5-trifluoro-1^8,3-dimethyl-1^2,1^7-dioxo-1^1,1^2,1^7,1^8-tetrahydro-7-oxa-2-aza-1(4,1)-pyrido[2,3-d]pyrimidina-4(1,3)-benzenacycloundecaphane-1^6-yl)cyclopropane-1-carbonitrile] fall in the same range of IC50: 100 to 5000 nM for the first, 100 to 5000 nM for the second.

Compared with `Cc1nc2c3cc(C4CCS(=O)(=O)CC4)c(=O)n(c3n1)CCCCCCCN1CCC(CC1)C(F)(F)c1cccc(c1)[C@@H](C)N2` [Compound 7, (4R)-6^6-(1,1-dioxidotetrahydro-2H-thiopyran-4-yl)-2,2-difluoro-6^2,4-dimethyl-6^7,6^8-dihydro-5-aza-6(4,8)-pyrido[2,3-d]pyrimidina-1(4,1)-piperidina-3(1,3)-benzenacyclotridecaphan-6^7-one], `C[C@H]1Nc2ncnc3c2cc(C2CCS(=O)(=O)CC2)c(=O)n3CCNC(=O)CCCN2CCC(CC2)C(F)(F)c2cccc1c2` [Compound 75, (4R)-6^6-(1,1-dioxidotetrahydro-2H-thiopyran-4-yl)-2,2-difluoro-4-methyl-6^7,6^8-dihydro-5,9-diaza-6(4,8)-pyrido[2,3-d]pyrimidina-1(4,1)-piperidina-3(1,3)-benzenacyclotridecaphane-6^7,10-dione] is lower in IC50: 100 to 5000 nM for the first, less than 100 nM for the second.

`Cc1nc2c3cc(C4(C#N)CC4)c(=O)n(c3n1)CCCC/C=C\CC(C)(O)C(F)(F)c1cccc(c1)[C@@H](C)N2` (stereo partly drawn) [Compound 13, 1-((3R,Z)-5,5-difluoro-6-hydroxy-1^2,3,6-trimethyl-1^7-oxo-1^7,1^8-dihydro-2-aza-1(4,8)-pyrido[2,3-d]pyrimidina-4(1,3)-benzenacyclotridecaphan-8-en-1^6-yl)cyclopropane-1-carbonitrile] and `Cc1nc2c3cc(C4(C#N)CC4)c(=O)n(c3n1)CCCCCC/C=C\CC(C)(O)C(F)(F)c1cccc(c1)[C@@H](C)N2` (stereo partly drawn) [Compound 18, 1-((3R,Z)-5,5-difluoro-6-hydroxy-1^2,3,6-trimethyl-1^7-oxo-1^7,1^8-dihydro-2-aza-1(4,8)-pyrido[2,3-d]pyrimidina-4(1,3)-benzenacyclopentadecaphan-8-en-1^6-yl)cyclopropane-1-carbonitrile] fall in the same range of IC50: 100 to 5000 nM for the first, 100 to 5000 nM for the second.

`COc1cc2nc(C)nc3c2cc1OCCOCCOCCOCCNC(=O)CCOCCNCc1ccccc1-c1cccc(c1)[C@@H](C)N3` [Compound 14, (R)-5^7-methoxy-5^2,3-dimethyl-6,9,12,15,22-pentaoxa-4,18,25-triaza-5(4,6)-quinazolina-1(1,2),2(1,3)-dibenzenacyclohexacosaphan-19-one] and `COc1cc2nc(C)nc3c2cc1OCCOCCOCCOCCOCCNCc1ccccc1-c1cccc(c1)C(C)N3` (stereo not drawn) [Compound 99, 5^7-methoxy-5^2,3-dimethyl-6,9,12,15,18-pentaoxa-4,21-diaza-5(4,6)-quinazolina-1(1,2),2(1,3)-dibenzenacyclodocosaphane] fall in the same range of IC50: 100 to 5000 nM for the first, 100 to 5000 nM for the second.

`COc1cc2nc(C)nc3c2cc1OCCOCCOCCOCCOCCNC(=O)CCCCNCc1ccccc1C1=CC=C(S1)C(C)N3` (stereo not drawn) [Compound 45, 5^7-methoxy-5^2,3-dimethyl-6,9,12,15,18-pentaoxa-4,21,27-triaza-5(4,6)-quinazolina-2(2,5)-thiophena-1(1,2)-benzenacyclooctacosaphan-22-one] and `COc1cc2nc(C)nc3c2cc1OCCOCCOCCOCCOCCNC(=O)CCCNCc1ccccc1C1=CC=C(S1)C(C)N3` (stereo not drawn) [Compound 51, 5^7-methoxy-5^2,3-dimethyl-6,9,12,15,18-pentaoxa-4,21,26-triaza-5(4,6)-quinazolina-2(2,5)-thiophena-1(1,2)-benzenacycloheptacosaphan-22-one] cannot be ordered by IC50: less than 100 nM for the first, less than 100 nM for the second.

`C[C@H]1Nc2nc(=O)n(c3c2cc(C2(C#N)CC2)c(=O)n3C)C/C=C\COCC(F)(F)c2cccc1c2F` [Compound 66, 1-((1^3E,3R,9Z)-4^2,5,5-trifluoro-1^8,3-dimethyl-1^2,1^7-dioxo-1^1,1^2,1^7,1^8-tetrahydro-7-oxa-2-aza-1(4,1)-pyrido[2,3-d]pyrimidina-4(1,3)-benzenacycloundecaphan-9-en-1^6-yl)cyclopropane-1-carbonitrile] and `C[C@H]1Nc2nc(=O)n(c3c2cc(C2(C#N)CC2)c(=O)n3C)CC/C=C\COCC(F)(F)c2cccc1c2F` [Compound 102, 1-((1^3E,3R,9Z)-4^2,5,5-trifluoro-1^8,3-dimethyl-1^2,1^7-dioxo-1^1,1^2,1^7,1^8-tetrahydro-7-oxa-2-aza-1(4,1)-pyrido[2,3-d]pyrimidina-4(1,3)-benzenacyclododecaphan-9-en-1^6-yl)cyclopropane-1-carbonitrile] fall in the same range of IC50: 100 to 5000 nM for the first, 100 to 5000 nM for the second.

Compared with `C[C@H]1Nc2ncnc3c2cc(N2CCS(=O)(=O)CC2)c(=O)n3CCCOCCCCN2CCC(CC2)C(F)(F)c2cccc1c2F` [Compound 69, (4R)-6^6-(1,1-dioxidothiomorpholino)-3^2,2,2-trifluoro-4-methyl-6^7,6^8-dihydro-10-oxa-5-aza-6(4,8)-pyrido[2,3-d]pyrimidina-1(4,1)-piperidina-3(1,3)-benzenacyclotetradecaphan-6^7-one], `Cc1nc2c3cc(C4(C#N)CC4)c(=O)n(c3n1)CCCCCCCCCOCC(F)(F)c1cccc(c1F)[C@@H](C)N2` [Compound 133, 1-((3R)-4^2,5,5-trifluoro-1^2,3-dimethyl-1^7-oxo-1^7,1^8-dihydro-7-oxa-2-aza-1(4,8)-pyrido[2,3-d]pyrimidina-4(1,3)-benzenacyclohexadecaphane-1^6-yl)cyclopropane-1-carbonitrile] is higher in IC50: less than 100 nM for the first, 100 to 5000 nM for the second.

`C[C@H]1Nc2nc(=O)n(c3c2cc(C2(C#N)CC2)c(=O)n3C)CCCC/C=C\COCC(F)(F)c2cccc1c2F` [Compound 82, 1-((1^3E,3R,9Z)-4^2,5,5-trifluoro-1^8,3-dimethyl-1^2,1^7-dioxo-1^1,1^2,1^7,1^8-tetrahydro-7-oxa-2-aza-1(4,1)-pyrido[2,3-d]pyrimidina-4(1,3)-benzenacyclotetradecaphan-9-en-1^6-yl)cyclopropane-1-carbonitrile] and `Cc1nc2c3cc(C4(C#N)CC4)c(=O)n(c3n1)CCCCCCCC(C)(O)C(F)(F)c1cccc(c1)[C@@H](C)N2` (stereo partly drawn) [Compound 148, 1-((3R)-5,5-difluoro-6-hydroxy-1^2,3,6-trimethyl-1^7-oxo-1^7,1^8-dihydro-2-aza-1(4,8)-pyrido[2,3-d]pyrimidina-4(1,3)-benzenacyclotridecaphane-1^6-yl)cyclopropane-1-carbonitrile] fall in the same range of IC50: 100 to 5000 nM for the first, 100 to 5000 nM for the second.

Compared with `C[C@H]1Nc2ncnc3c2cc(C2(C#N)CC2)c(=O)n3CC(=O)N(C)CCCCN2CCC(CC2(C)C)C(F)(F)c2cccc1c2` (stereo partly drawn) [Compound 93, 1-((4R)-2,2-difluoro-1^2,1^2,4,9-tetramethyl-6^7,8-dioxo-6^7,6^8-dihydro-5,9-diaza-6(4,8)-pyrido[2,3-d]pyrimidina-1(4,1)-piperidina-3(1,3)-benzenacyclotridecaphane-6^6-yl)cyclopropane-1-carbonitrile], `Cc1nc2c3cc(C4(C#N)CC4)c(=O)n(c3n1)CCCCCCCCCC(C)(O)C(F)(F)c1cccc(c1)[C@@H](C)N2` (stereo partly drawn) [Compound 115, 1-((3R)-5,5-difluoro-6-hydroxy-1^2,3,6-trimethyl-1^7-oxo-1^7,1^8-dihydro-2-aza-1(4,8)-pyrido[2,3-d]pyrimidina-4(1,3)-benzenacyclopentadecaphane-1^6-yl)cyclopropane-1-carbonitrile] is higher in IC50: less than 100 nM for the first, 100 to 5000 nM for the second.

Work on `COc1cc2nc(C)nc3c2cc1OCCOCCOCCOCCOCCNC(=O)CCNCc1ccccc1C1=CC=C(S1)C(C)N3` (stereo not drawn) [Compound 136, 5^7-methoxy-5^2,3-dimethyl-6,9,12,15,18-pentaoxa-4,21,25-triaza-5(4,6)-quinazolina-2(2,5)-thiophena-1(1,2)-benzenacyclohexacosaphan-22-one] yielded an IC50 of 100 to 5000 nM.
